Experimental data as given in patent publication US9580390B2, “Indazole compounds as kinase inhibitors and method of treating cancer with same” (University Health Network, priority 2011, dated 2017).

How the values were obtained:
human TTK = target: T1, human TTK (Homo sapiens, UniProt P33981); experiment: TTK inhibition assay (indirect ELISA); format: biochemical; details: read-out: TTK IC50 Range
T1 construct: amino terminal GST fusion of full length human TTK; purchased Invitrogen
T1 sequence (P33981 1-857): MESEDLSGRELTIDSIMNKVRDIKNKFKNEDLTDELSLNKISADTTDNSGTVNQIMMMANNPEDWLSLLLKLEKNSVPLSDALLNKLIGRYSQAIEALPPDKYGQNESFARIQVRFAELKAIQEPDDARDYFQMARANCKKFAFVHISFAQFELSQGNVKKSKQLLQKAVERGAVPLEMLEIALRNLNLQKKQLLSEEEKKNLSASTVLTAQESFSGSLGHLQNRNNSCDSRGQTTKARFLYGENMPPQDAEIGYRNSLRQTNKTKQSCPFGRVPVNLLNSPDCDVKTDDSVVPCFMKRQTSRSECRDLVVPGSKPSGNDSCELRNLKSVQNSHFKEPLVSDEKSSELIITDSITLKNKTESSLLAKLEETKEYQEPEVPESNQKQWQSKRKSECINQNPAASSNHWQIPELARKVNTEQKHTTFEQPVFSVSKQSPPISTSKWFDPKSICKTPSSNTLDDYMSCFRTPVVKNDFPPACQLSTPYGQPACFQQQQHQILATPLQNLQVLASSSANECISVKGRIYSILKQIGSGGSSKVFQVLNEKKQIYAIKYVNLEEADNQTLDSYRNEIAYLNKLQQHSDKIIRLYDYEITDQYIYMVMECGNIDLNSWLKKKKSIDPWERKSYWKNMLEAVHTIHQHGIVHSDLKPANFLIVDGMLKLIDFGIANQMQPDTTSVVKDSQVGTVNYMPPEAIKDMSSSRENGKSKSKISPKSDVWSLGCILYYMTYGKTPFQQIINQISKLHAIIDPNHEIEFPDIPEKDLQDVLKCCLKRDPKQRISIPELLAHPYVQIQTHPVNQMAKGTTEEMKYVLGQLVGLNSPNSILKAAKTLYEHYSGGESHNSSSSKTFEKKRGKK

Breast cancer cells = experiment: Cancer cell line growth inhibition (SRB assay); format: cell-based; details: Homo sapiens; MDA-MB-468; read-out: Cancer Cell Line GI50 Range MDA-MB-468
[1] = test system: colon cancer cells (HCT116); experiment: Cancer cell line growth inhibition (SRB assay); format: cell-based; details: Homo sapiens, HCT-116; read-out: Cancer Cell Line GI50 Range HCT116
[2] = test system: ovarian cancer cells (PA-1); experiment: Cancer cell line growth inhibition (SRB assay); format: cell-based; details: Homo sapiens, PA-1; read-out: Cancer Cell Line GI50 Range PA-1
TICs (Colon 12) = experiment: Colon tumor-initiating cell growth inhibition (Alamar Blue); format: cell-based; details: 216 h; Colon 12 TICs, 9 days; read-out: Tumor Initiating Cell GI50 Range Colon 12
TICs (Ovarian 2393A) = experiment: Ovarian tumor-initiating cell growth inhibition (Alamar Blue); format: cell-based; details: 144 h; Ovarian 2393A TICs, 6 days; read-out: Tumor Initiating Cell GI50 Range Ovarain 2393A

SMILES	IC50 (human TTK) [nM]	GI50 (Breast cancer cells) [nM]	GI50 [1] [nM]	GI50 [2] [nM]	GI50 (TICs (Colon 12)) [nM]	GI50 (TICs (Ovarian 2393A)) [nM]
CN1[C@@H]2CCC[C@H]1C[C@@H](Oc1ccc(-c3n[nH]c4ccc(C(=O)NC(c5ccccn5)C5CCCC5)cc34)cc1)C2 (stereo partly drawn) [Example A391, N-(cyclopentyl(pyridin-2-yl)methyl)-3-(4-(((1R,3R,5S)-9-methyl-9-azabicyclo[3.3.1]nonan-3-yl)oxy)phenyl)-1H-indazole-5-carboxamide]	< 100	100 to 500	< 100	< 100	< 100	100 to 500
CC(C)C(NC(=O)c1ccc2[nH]nc(-c3ccc(O[C@H]4C[C@H]5CCC[C@@H](C4)N5C)cc3)c2c1)c1ccccc1Cl (stereo partly drawn) [Example A394, N-(1-(2-chlorophenyl)-2-methylpropyl)-3-(4-(((lR,3R,5S)-9-methyl-9-azabicyclo[3.3.1]nonan-3-yl)oxy)phenyl)-1H-indazole-5-carboxamide]	< 100	100 to 500	< 100	100 to 500	100 to 500	100 to 500
CC(C)C(NC(=O)c1ccc2[nH]nc(-c3ccc(OC4CC5CCC(C4)N5C)cc3)c2c1)c1ccccn1 (stereo not drawn) [Example A395, N-(2-methyl-1-(pyridin-2-yl)propyl)-3-(4-((8-methyl-8-azabicyclo [3.2.1]octan-3-yl)oxy)phenyl)-1H-indazole-5-carboxamide]	< 100	< 100	< 100	< 100	< 100	100 to 500
O=C(N[C@@H](c1ccccn1)C1CCCC1)c1ccc2[nH]nc(-c3ccc(N4CCN(C5COC5)CC4)cc3)c2c1 [Example A411, (R)-N-(cyclopentyl(pyridin-2-yl)methyl)-3-(4-(4-(oxetan-3-yl)piperazin-1-yl)phenyl)-1H-indazole-5-carboxamide]	< 100	< 100	< 100	< 100	< 100	< 100
O=C(N[C@H](c1ccccn1)C1CCCC1)c1ccc2[nH]nc(-c3ccc(N4C5COCC4CC(O)C5)cc3)c2c1 (stereo partly drawn) [Example A420, N-((S)-cyclopentyl(pyridin-2-yl)methyl)-3-(4-((1R,5S,7R)-7-hydroxy-3-oxa-9-azabicyclo[3.3.1]nonan-9-yl)phenyl)-1H-indazole-5-carboxamide]	< 100	< 100	< 100	< 100	< 100	< 100
CC(C)[C@H](NC(=O)c1ccc2[nH]nc(-c3ccc(N4C5COCC4CC(O)C5)cc3)c2c1)c1ccccc1Cl (stereo partly drawn) [Example A421, N((S)-1-(2-chlorophenyl)-2-methylpropyl)-3-(4-((1R,5S,7R)-7-hydroxy-3-oxa-9-azabicyclo [3.3.1]nonan-9-yl)phenyl)-1H-indazole-5-carboxamide]	< 100	< 100	< 100	< 100	< 100	< 100
O=C(NCC1(N2CCOCC2)CCCCC1)c1ccc2[nH]nc(-c3ccc(N4CCN(CCO)CC4)cc3)c2c1 [Example A459, 3-(4-(4-(2-hydroxyethyl)piperazin-1-yl)phenyl)-N-((1-morpholinocyclohexyl)methyl)-1H-indazole-5-carboxamide]	< 100	100 to 500	< 100	< 100	100 to 500	100 to 500
CN1[C@@H]2CC[C@H]1C[C@@H](Oc1ccc(-c3n[nH]c4ccc(C(=O)NCC5(c6ccccc6)CCOCC5)cc34)cc1)C2 [Example A484, 3-(4-(((1R,3R,5S)-8-methyl-8-azabicyclo[3.2.1]octan-3-yl)oxy)phenyl)-N-((4-phenyltetrahydro-2H-pyran-4-yl)methyl)-1H-indazole-5-carboxamide]	< 100	100 to 500	< 100	< 100	100 to 500	100 to 500
